Data taken from BindingDB's records for doi:10.7270/Q2QN656Q (The Scripps Research Institute Molecular Screening Center, 2010).
Where “and” joins values, the source holds several entries; their conditions need not be identical. Equal entries are not always repeated.

Molecular target: Serine/threonine-protein phosphatase PP1-alpha catalytic subunit (Homo sapiens, UniProt P62136)
Experiment: inhibition of protein phosphatase 1 activity – biochemical, fluorescence, dose response (AID 2403)

Chain of Serine/threonine-protein phosphatase PP1-alpha catalytic subunit (P62136 whole entry): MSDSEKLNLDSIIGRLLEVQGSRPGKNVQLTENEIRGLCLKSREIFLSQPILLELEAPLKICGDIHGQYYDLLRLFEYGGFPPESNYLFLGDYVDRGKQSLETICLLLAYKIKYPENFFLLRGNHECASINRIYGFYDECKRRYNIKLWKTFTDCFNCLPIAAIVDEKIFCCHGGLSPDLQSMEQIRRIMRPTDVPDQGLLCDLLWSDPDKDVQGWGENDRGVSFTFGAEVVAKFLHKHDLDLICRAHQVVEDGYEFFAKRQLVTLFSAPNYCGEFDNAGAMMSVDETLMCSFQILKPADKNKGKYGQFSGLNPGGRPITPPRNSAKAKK

| Compound | IC50 |
| --- | --- |
| O=C1OC(=O)[C@H]2[C@@H]1[C@@H]1CC[C@H]2O1 [(1R,2S,6R,7S)-4,10-Dioxa-tricyclo[5.2.1.0*2,6*]decane-3,5-dione] | 4.12 µM and 2.83 µM |
| COc1ccc(CN=Nc2cc(C)nc(-n3nc(C)cc3C)n2)c(OC)c1 [MLS000589396] | 6.68 µM |
| COc1ccc(CN=Nc2cc(C)nc(-n3nc(C)cc3C)n2)cc1 [SMR000212741] | 5.81 µM |
| CC1(C)Cc2c(nn(-c3ccccc3)c(=N)c2C#N)CO1 | 55.8 µM |
| CCOC(=O)c1sc(N2C(=O)C(=O)C(C(=O)c3ccco3)C2c2cccc([N+](=O)[O-])c2)nc1C (stereo not given) [MLS001082998] | 11.8 µM |
